These results are taken from ChEMBL document CHEMBL2380233, “Addition of artificial salt bridge by Ile646Lys mutation in gp41 coiled-coil domain regulates 6-helical bundle formation” (Bioorg Med Chem Lett, 2013).

The IC50 is the concentration at which inhibition is half-maximal. Low readings indicate greater potency, high ones weaker potency.

The test system of assay [1] is Human immunodeficiency virus 1. Nature of the assay: Antiviral activity against HIV1 HXB2 infected in HEK293T cells by luciferase reporter gene assay. Format: functional, organism-based. Conditions: Human immunodeficiency virus 1, HXB2, HEK-293T. A general note: Reporter assays use an easily measured gene product as a stand-in for the process of interest.
Assay [2] relates to Human immunodeficiency virus 1. Nature of the assay: Antiviral activity against HIV1 SF162 infected in HEK293T cells by luciferase reporter gene assay. The assay is classed as functional, cell-based. Conditions: Human immunodeficiency virus 1, SF162 ISOLATE, HEK-293T.
Assay [3] relates to Human immunodeficiency virus 1. Nature of the assay: Antiviral activity against HIV1 JRFL infected in HEK293T cells by luciferase reporter gene assay. The assay is classed as functional, organism-based. The conditions noted are these: Human immunodeficiency virus 1, JRFL, HEK-293T.
The subject of assay [4] is Human immunodeficiency virus 1. Nature of the assay: Antiviral activity against HIV1 CNE3 infected in HEK293T cells by luciferase reporter gene assay. Format: functional, organism-based. Conditions: Human immunodeficiency virus 1, CNE3, HEK-293T.

Take `CC[C@H](C)[C@H](NC(=O)[C@H](CCC(=O)O)NC(=O)[C@H](CCCNC(=N)N)NC(=O)[C@H](CC(=O)O)NC(=O)[C@H](Cc1c[nH]c2ccccc12)NC(=O)[C@H](CCC(=O)O)NC(=O)[C@H](CCSC)NC(=O)[C@H](Cc1c[nH]c2ccccc12)NC(C)=O)C(=O)N[C@@H](CC(N)=O)C(=O)N[C@@H](CC(N)=O)C(=O)N[C@@H](Cc1ccc(O)cc1)C(=O)N[C@H](C(=O)N[C@@H](CO)C(=O)N[C@@H](CC(C)C)C(=O)N[C@H](C(=O)N[C@@H](Cc1cnc[nH]1)C(=O)N[C@@H](CO)C(=O)N[C@@H](CC(C)C)C(=O)N[C@@H](CCCCN)C(=O)N[C@@H](CCC(=O)O)C(=O)N[C@@H](CCC(=O)O)C(=O)N[C@@H](CO)C(=O)N[C@@H](CCC(N)=O)C(=O)N[C@@H](CC(N)=O)C(=O)N[C@@H](CCC(N)=O)C(=O)N[C@@H](CCC(N)=O)C(=O)N[C@@H](CCC(=O)O)C(=O)N[C@@H](CCCCN)C(=O)N[C@@H](CC(N)=O)C(=O)N[C@@H](CCC(=O)O)C(=O)N[C@@H](CCC(N)=O)C(=O)N[C@@H](CCC(=O)O)C(=O)N[C@@H](CC(C)C)C(=O)N[C@@H](CC(C)C)C(N)=O)[C@@H](C)CC)[C@@H](C)O`: the IC50 in assay [1] was found to be 94 nM; in assay [2], 520 nM; in assay [3], 920 nM; in assay [4], 550 nM.
Taken in the same sequence, the figures for `CC[C@H](C)[C@H](NC(=O)[C@H](CCC(=O)O)NC(=O)[C@H](CCCNC(=N)N)NC(=O)[C@H](CC(=O)O)NC(=O)[C@H](Cc1c[nH]c2ccccc12)NC(=O)[C@H](CCC(=O)O)NC(=O)[C@H](CCSC)NC(=O)[C@H](Cc1c[nH]c2ccccc12)NC(C)=O)C(=O)N[C@@H](CC(N)=O)C(=O)N[C@@H](CC(N)=O)C(=O)N[C@@H](Cc1ccc(O)cc1)C(=O)N[C@H](C(=O)N[C@@H](CO)C(=O)N[C@@H](CC(C)C)C(=O)N[C@H](C(=O)N[C@@H](Cc1cnc[nH]1)C(=O)N[C@@H](CO)C(=O)N[C@@H](CC(C)C)C(=O)N[C@@H](CCC(=O)O)C(=O)N[C@@H](CCC(=O)O)C(=O)N[C@@H](CCC(=O)O)C(=O)N[C@@H](CO)C(=O)N[C@@H](CCC(N)=O)C(=O)N[C@@H](CC(N)=O)C(=O)N[C@@H](CCC(N)=O)C(=O)N[C@@H](CCC(N)=O)C(=O)N[C@@H](CCC(=O)O)C(=O)N[C@@H](CCCCN)C(=O)N[C@@H](CC(N)=O)C(=O)N[C@@H](CCC(=O)O)C(=O)N[C@@H](CCC(N)=O)C(=O)N[C@@H](CCC(=O)O)C(=O)N[C@@H](CC(C)C)C(=O)N[C@@H](CC(C)C)C(N)=O)[C@@H](C)CC)[C@@H](C)O` were 1310 nM, 1430 nM, 1190 nM and 470 nM.
